In patent publication US20250195604A1, “Compositions and Methods of Treatment of Certain Vasculitis Syndromes” (Soligenix, Inc., priority 2023, published 2025):
“Also recorded” adds a separate entry of the source. Read-outs that look alike come from different tables or passages of the source. No end group written: not given here.

Tests used:
NFKB = NFKB activation on dusquetide binding to p62; assay type: cell-based
[1] = tested on: whole blood stimulated with LPS (E. coli); assay: Phase 1 study: in vitro LPS stimulation of whole blood from SAD and MAD volunteers, cytokine and chemokine analytes; assay type: in vivo, human
Protocol: Solid lines indicate the mean response, dashed lines the respective 95% CI for the population.
(§1) In a Phase 1 study, patients received single ascending doses (0.15 to 8.0 mg/kg) and multiple ascending doses (daily 7× 0.5 to 6.5 mg/kg) of dusquetide as 4-minutes IV infusions. To determine the pharmacodynamic profile of dusquetide, cytokine and chemokine analytes were quantified after 4 h of in vitro stimulation of whole blood with LPS (E. coli) to determine dusquetide effects on dose, gender and any extended impact on PD.
The following panel of cytokine and chemokine analytes were quantified: IL-la; IL-1B; IL-6; IL-1ra; TNFα; Tumor Necrosis Factor-Receptor II (TNF RII); MCP-1; Macrophage Inflammatory Protein-1alpha (MIP-la; also known as CCL3); MIP-1B (also known as CCL4) and RANTES (also known as CCL5). The dusquetide-treated population (N=56) in the combined SAD and MAD data set was subdivided into “low dose” (N=26, 0.15-2.0 mg/kg) and “high dose” (N=30; 3.0-8.0 mg/kg) groups and these were compared to the combined placebo group (N=22).

[2] = tested on: mouse macrophage-like cell line; assay: Signalling after dusquetide exposure in mouse macrophage-like cell line; assay type: cell-based
[3] = tested on: mouse blood challenged with LPS; assay: LPS challenge of mouse blood exposed to dusquetide in vitro; assay type: cell-based; settings: dusquetide exposure in vitro
Description: (§2) The innate immune system involves numerous cell types distributed throughout the body in both circulating and tissue-resident compartments. The interaction of all the cells defines the aggregate response. […] Nevertheless, cellular and molecular studies with individual cell types or sub-groups of cell types are informative but must be interpreted cautiously when used to predict the behavior of the system in vivo. […] By contrast, when dusquetide exposure of either mouse or human blood occurs in vitro, although the TNFα response to LPS challenge is unaffected, the MCP-1 response is reduced. The responses of mouse and human primary blood cells to dusquetide in this in vitro setting are quantitatively and qualitatively similar.

bacterial challenge = assay: Bacterial challenge in mice rendered leukopenic by cyclophosphamide; assay type: in vivo, mouse
[4] = tested on: response to lipopolysaccharide; settings: North 2016, Yu 2009; cited from earlier work
[5] = tested on: mouse macrophage-like cell line; settings: medium of dusquetide-incubated splenocytes, North 2016; cited from earlier work
[6] = tested on: dextran sulphate sodium (DSS)-induced colitis; settings: Kudrimoti 2016, levels comparative to maximal steroid use; cited from earlier work
[7] = tested on: mouse primary cell cultures; settings: North 2016; cited from earlier work
[8] = tested on: nonhuman primate (NHP) primary cell cultures; settings: North 2016; cited from earlier work
[9] = tested on: NHP blood cultured with LPS; assay: Ex vivo LPS challenge of NHP blood after in vivo dusquetide; settings: for IL-1β response to LPS / MIP-la response to LPS: NHP
Description: (§3) Further studies have explored the ability of blood cells to respond to a pathogen (or pathogen-like) challenge in vitro after prior exposure to dusquetide in vivo—an “ex vivo” test system that provides information about the “responsiveness” of the innate defense system. The responsiveness of mouse and NHP innate defense systems have been characterized by measuring changes in cytokine and chemokine production following ex vivo challenge of blood cells with LPS. In general, no evidence of broad-spectrum activation was observed.

[10] = tested on: fractionated radiation-induced mucositis; assay: Hamster model of fractionated radiation-induced mucositis; assay type: in vivo
Description: Dusquetide has been extensively studied in animal models of both mucosal damage (where damage associated molecular patterns (DAMPS)) trigger the innate defense system) and bacterial infection (where pathogen associated molecular patterns (PAMPS)) trigger the innate defense system).

MRSA [11] = assay: IV MRSA challenge model (bacteremia) in mice
[12] = tested on: cytokine or chemokine levels; assay: Circulating cytokine and chemokine levels in normal mice; assay type: in vivo, mouse
p62 = p62 (Homo sapiens, UniProt Q13501); settings: Yu 2009; cited from earlier work
MRSA [13] = assay: MRSA infection in athymic nude mice; assay type: in vivo
[14] = tested on: severe oral mucositis (SOM); assay: Phase 2 study of oral mucositis in head and neck cancer patients receiving radiation and cisplatin (IDR-OM-01); assay type: in vivo, human
Protocol: The Phase 2 study was designed to examine the effects of dusquetide on ameliorating OM in patients with oral or oropharyngeal squamous cell carcinoma who were undergoing therapy with fractionated radiation (2.0-2.2 Gy per day for a total planned cumulative dose of 55-75 Gy) and chemotherapy with cisplatin given either as “low dose” (30-40 mg/m2 every week) or as “high dose” or “aggressive” cisplatin (80-100 mg/m2 given every 3 weeks). Dusquetide was evaluated in this dose ranging study at doses of 1.5, 3.0 (3 patients only) and 6.0 mg/kg.

[15] = tested on: dextran sulphate sodium (DSS)-induced colitis; design: species or system male C57BL/6 mice; settings: mouse, in vivo
[16] = tested on: severe oral mucositis (SOM); settings: cited from earlier work; for overall infection rate: Kudrimoti 2016
[17] = tested on: severe oral mucositis (SOM); assay: Phase 3 study IDR-OM-02, oral mucositis in head and neck cancer patients receiving chemoradiation; assay type: in vivo, human; settings: 1.5 mg/kg twice per week
Protocol: Subsequently a Phase 3 international study (Study IDR-OM-02) evaluated dusquetide in the treatment of […] in head and neck cancer patients receiving concomitant chemoradiation therapy (at least 55 Gy radiation therapy and 80 to 100 mg/m2 cisplatin received every third week). 266 patients were enrolled in the randomized, blinded and placebo-controlled study assessing treatment with 1.5 mg/kg dusquetide administered twice per week as a 4-minute infusion.

[18] = tested on: human primary cell cultures; settings: North 2016; cited from earlier work
[19] = tested on: cytokine and chemokine levels; assay: Circulating cytokine and chemokine levels in NHPs; assay type: in vivo, NHP
[20] = tested on: mucositis (oral and lower GI tract); settings: mice after chemotherapy, Kudrimoti 2016; cited from earlier work
MRSA [21] = settings: mouse, in vivo
[22] = biological target: sequestosome-1, also known as p62 (Homo sapiens, UniProt Q13501); settings: Yu 2009, Zhang 2022; cited from earlier work
[23] = tested on: MRSA, S. aureus, K. pneumoniae, B. pseudomallei; settings: mouse, in vivo; cited from earlier work
[24] = tested on: human epithelial cell lines; assay: Signalling after dusquetide exposure in human epithelial cell lines; assay type: cell-based
[25] = Phase 1 studies, safety of IV dusquetide; assay type: in vivo, human; settings: dose levels of 0.15 to 8.0 mg/kg
Protocol: The dosage form of dusquetide is an aqueous, aseptically processed, sterile solution for injection. Each vial contains 5 mL of a 60 mg/mL solution (300 mg of dusquetide). Dusquetide is formulated in water for injection and pH adjusted to a target value of 6.0. The preferred formulation of the present invention contains no excipients and has an osmolality of ˜300 mOsm/kg. Dusquetide drug product is diluted in sterile saline to the appropriate concentration for injection, determined on a mg/kg basis by the recipient's weight at a dose level of 1.5 mg/kg. Diluted dusquetide is administered as an intravenous (IV) infusion in 25 mL over 4 minutes, once every third day.
as §1

[26] = tested on: human blood challenged with LPS; assay: LPS challenge of human blood exposed to dusquetide in vitro; assay type: cell-based; settings: dusquetide exposure in vitro
Description: as §2

[27] = tested on: mouse blood cells challenged with LPS; assay: Ex vivo LPS challenge of mouse blood cells after in vivo dusquetide
Description: as §2, §3

[28] = low dose group (0.15-2.0 mg/kg)
[29] = low dose group (0.15-2.0 mg/kg), 1 h timepoint, vs placebo or high dose
[30] = longer term, 12-24 h after administration
[31] = short term, 1 to 4 h after administration, modest
[32] = hamster, fractionated radiation
[33] = 1.5 mg/kg, all patients, vs placebo
[34] = 1.5 mg/kg, every 3rd week cisplatin subpopulation
[35] = 1.5 mg/kg, every 3rd week cisplatin subpopulation, vs placebo
[36] = dusquetide in vivo before culture

Sequence of p62 (Q13501 whole entry): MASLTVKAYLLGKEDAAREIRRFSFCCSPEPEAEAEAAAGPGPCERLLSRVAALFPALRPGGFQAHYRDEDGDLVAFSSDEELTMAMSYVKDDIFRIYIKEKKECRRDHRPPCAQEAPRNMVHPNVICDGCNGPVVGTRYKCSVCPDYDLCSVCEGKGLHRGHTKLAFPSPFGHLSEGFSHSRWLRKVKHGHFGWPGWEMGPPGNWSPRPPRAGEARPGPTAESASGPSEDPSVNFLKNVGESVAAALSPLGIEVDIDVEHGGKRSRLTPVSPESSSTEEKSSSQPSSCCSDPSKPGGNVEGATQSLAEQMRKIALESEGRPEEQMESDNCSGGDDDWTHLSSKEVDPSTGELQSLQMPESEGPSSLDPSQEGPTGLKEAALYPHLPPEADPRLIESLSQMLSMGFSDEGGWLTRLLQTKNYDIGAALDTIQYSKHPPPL
Sequence of sequestosome-1, also known as p62 (Q13501 whole entry): as above

RIVPA-NH2 [dusquetide, L-arginyl-L-isoleucyl-L-valyl-L-prolyl-L-alanine-amide]
activation of NFKB (NFKB): does not cause persistent activation
measured cytokine and chemokine analytes ([1]; high dose group (3.0-8.0 mg/kg)): very similar to the placebo group
ratio IL-1ra/IL-1B [1, 28]: more distinct increased responses
ratio TNF RII/TNFα [1, 28]: more distinct increased responses
IL-1B after LPS stimulation of whole blood [1, 29]: slightly decreased
IL-1ra after LPS stimulation of whole blood [1, 29]: slightly increased
IL-1x after LPS stimulation of whole blood [1, 29]: slightly decreased
TNFα after LPS stimulation of whole blood [1, 29]: slightly decreased
C/EBPB activation [2]: transient activation
p38 MAP kinase activation [2]: transient activation
MCP-1 response to LPS challenge [3]: reduced
TNFα response to LPS challenge [3]: unaffected
survival (bacterial challenge): survival benefit
ILIra relative to IL-1B [4]: increasing
TNFRII relative to TNFα [4]: increasing
IL-6 response of macrophage cell line [5]: suppressing
IL-10 response of macrophage cell line [5]: suppressing
TNFα response of macrophage cell line [5]: suppressing
protection of the lower GI [6]: further protection
expression patterns of chemokines such as MCP-1 [7]: modulated
expression patterns of chemokines such as MCP-1 [8]: modulated
IL-1β response to LPS [9, 30]: mild elevations
MIP-la response to LPS [9, 30]: mild elevations
IL-1β response to LPS [9, 31]: decreases
MIP-la response to LPS [9, 31]: decreases
IL-1ra response to LPS ([9]; blood from dusquetide-treated NHP): marked increase
responses of most analytes (47 cytokines and chemokines) to LPS ([9]; primate, dusquetide in vivo before culture): insignificant changes
efficacy by regimen ([10]; every 2nd or 3rd day at 25 mg/kg): effective
duration of SOM [10, 32]: decrease
intensity of SOM [10, 32]: decrease
relation to antibiotic administration (MRSA [11]; IV, therapeutic or prophylactic administration): complementary to antibiotic administration
IV dose at which efficacy is consistently seen (MRSA [11]; mice, IV): greater than or equal to 5 mg/kg
duration of PD effects of a single dose (MRSA [11]; mice, depending on the dose level): up to 5 days
circulating half-life (MRSA [11]; mouse, in vivo): short
cytokine or chemokine levels [12]: no changes
p62 interaction with PKCS (p62): no effect
p62 interaction with RIP1 (p62): selectively alters
p62 interaction with TRAF6 (p62): no effect
survival (MRSA [13]): survival benefit
median duration of SOM ([14]; 1.5 mg/kg, all patients): 9 days
reduction in median duration of SOM vs placebo ([14]; 1.5 mg/kg, all patients): 50%
reduction in median AUC for the WHO Grade-time calculation [14, 33]: 39%
reduction in the incidence of SOM [14, 33]: 7%
decrease in median duration of SOM vs placebo [14, 34]: 67%
median duration of SOM [14, 34]: 10 days
onset of disease [14, 34]: no impact
reduction in median AUC WHO Grade-time calculation [14, 35]: 51%
relative reduction in incidence of SOM [14, 35]: 18%
AUC (WHO Grade-time) ([14]; 1.5 mg/kg, weekly cisplatin): 10.5
decrease in median duration of SOM vs placebo ([14]; 1.5 mg/kg, weekly cisplatin): 50%
median duration of SOM ([14]; 1.5 mg/kg, weekly cisplatin): 5 days
reduction in the AUC vs placebo ([14]; 1.5 mg/kg, weekly cisplatin): 55%
most efficacious dose ([14]; dose ranging 1.5, 3.0 and 6.0 mg/kg): 1.5 mg/kg
degree of response compared with 3 mg/kg prednisolone of 0.5 mg/kg budesonide [15]: similar
formulation of oral ulcers ([16]; Kudrimoti 2016, Kudrimoti 2017): suppress
overall infection rate [16]: reduction
overall infection rate ([16]; listed as Dusquetide): decreasing
response in duration of SOM ([17]; intent to treat (ITT) population): not
response in duration of SOM ([17]; per protocol (PP) population): statistically significant response
expression patterns of chemokines such as MCP-1 [18]: modulated
MCP-1 levels ([19]; NHP, transient): modest changes
IL-1ra level ([19]; NHPs): marked but variable increase
levels of most cytokines and chemokines ([19]; NHPs): no substantial changes
duration of mucositis [20]: decreased
intensity of mucositis [20]: decreased
swelling of abraded skin (MRSA [21]): reduced
ulceration of abraded skin (MRSA [21]): reduced
binding to sequestosome-1 (p62) [22]: bind (but not inhibit); also recorded: binds
bacterial growth [23]: reduced bacterial growth
survival [23]: increased survival
C/EBPB activation [24]: transient activation
p38 MAP kinase activation [24]: transient activation
safety of administration [25]: safely administered
MCP-1 response to LPS challenge [26]: reduced
TNFα response to LPS challenge [26]: unaffected
ex vivo MCP-1 response to LPS [27, 36]: increases
ex vivo TNFα response to LPS [27, 36]: decreases
responses of most analytes (58 cytokines and chemokines) to LPS [27, 36]: insignificant changes
ex vivo MCP-3 response to LPS ([27]; dusquetide in vivo vs saline): increases
